Source: patent US12252524B2, “GIP/GLP1 co-agonist compounds” (Eli Lilly and Company, priority 2018, dated 2025)
Numbered stars: 1 amine (or outer) side, 2 acyl side, 3 side chain; on linkers, the order of the positions; unused ones are H or OH. Square brackets hold non-standard residues; d marks the D form. Side chains are listed from the residue outwards. Peptide text beside a SMILES is read from it. * marks the point of attachment. C20 diacid = O=C(O)CCCCCCCCCCCCCCCCCCC(=O)*; C18 diacid = O=C(O)CCCCCCCCCCCCCCCCC(=O)*; γGlu = O=C(O)[C@H](CCC(=O)[*:2])N[*:1]; αMeL = CC(C)C[C@](C)(N)C(=O)O; Orn = NCCC[C@H](N)C(=O)O; AEEA = NCCOCCOCC(=O)O; Aib = CC(C)(N)C(=O)O

What was measured:
human Gcg receptor = target: T1, human Gcg receptor (Homo sapiens, UniProt P47871); test: [125I]-Glucagon binding (SPA), human Gcg receptor; conditions: read-out: hGLcgR Ki, nM (SEM, n)
T1 construct: expressed in transfected cells; crude membranes
T1 sequence (P47871 26-477): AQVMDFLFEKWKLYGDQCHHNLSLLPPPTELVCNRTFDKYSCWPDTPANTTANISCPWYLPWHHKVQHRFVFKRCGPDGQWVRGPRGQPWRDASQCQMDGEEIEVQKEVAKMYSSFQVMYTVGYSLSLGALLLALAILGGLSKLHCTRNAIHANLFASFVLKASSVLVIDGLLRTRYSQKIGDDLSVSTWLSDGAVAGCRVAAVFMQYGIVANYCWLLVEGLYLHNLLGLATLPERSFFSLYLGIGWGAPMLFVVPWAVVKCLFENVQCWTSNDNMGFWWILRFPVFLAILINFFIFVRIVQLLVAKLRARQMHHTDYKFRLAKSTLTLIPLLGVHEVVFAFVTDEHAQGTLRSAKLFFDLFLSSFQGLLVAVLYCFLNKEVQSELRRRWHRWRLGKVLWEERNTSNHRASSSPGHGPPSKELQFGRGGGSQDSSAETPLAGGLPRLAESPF
How it was run: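 Scintillation counts are taken after membranes and WGA beads incubate and settle for 12 hours at room temperature. Buffer is 25 mM HEPES, pH 7.4, with CaCl2, MgCl2, bacitracin and Tween-20. Ki values, from four-parameter IC50 fits, are geometric means over independent days.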

human GIP receptor = target: T2, human GIP receptor (Homo sapiens, UniProt P48546); test: [125I]-GIP binding (SPA), human GIP receptor; conditions: read-out: hGIPR Ki, nM (SEM, n)
T2 construct: expressed in transfected cells; crude membranes
T2 sequence (P48546 22-466): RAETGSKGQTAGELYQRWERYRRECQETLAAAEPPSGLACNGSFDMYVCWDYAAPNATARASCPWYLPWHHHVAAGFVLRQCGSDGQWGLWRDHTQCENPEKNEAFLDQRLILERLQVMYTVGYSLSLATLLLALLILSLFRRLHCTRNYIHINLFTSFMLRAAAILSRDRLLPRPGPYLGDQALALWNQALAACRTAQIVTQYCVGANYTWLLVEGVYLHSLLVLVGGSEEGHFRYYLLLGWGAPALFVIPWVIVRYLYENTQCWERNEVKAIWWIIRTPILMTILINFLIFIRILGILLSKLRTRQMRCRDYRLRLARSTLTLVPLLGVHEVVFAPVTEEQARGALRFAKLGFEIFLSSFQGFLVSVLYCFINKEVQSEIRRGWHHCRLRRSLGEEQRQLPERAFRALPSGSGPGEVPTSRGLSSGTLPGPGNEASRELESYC

[1] = target: human GLP-1 receptor (GLP-1R) (Homo sapiens, UniProt P43220); test: cAMP pharmacological functional assay in presence of casein, hGLP-1R; assay type: cell-based; conditions: HEK293 cells expressing hGLP-1R, 0.1% Casein, geometric mean; read-out: hGLP1R cAMP Rel EC50 nM (SEM, n)
Chain of human GLP-1 receptor (GLP-1R) (P43220 24-463): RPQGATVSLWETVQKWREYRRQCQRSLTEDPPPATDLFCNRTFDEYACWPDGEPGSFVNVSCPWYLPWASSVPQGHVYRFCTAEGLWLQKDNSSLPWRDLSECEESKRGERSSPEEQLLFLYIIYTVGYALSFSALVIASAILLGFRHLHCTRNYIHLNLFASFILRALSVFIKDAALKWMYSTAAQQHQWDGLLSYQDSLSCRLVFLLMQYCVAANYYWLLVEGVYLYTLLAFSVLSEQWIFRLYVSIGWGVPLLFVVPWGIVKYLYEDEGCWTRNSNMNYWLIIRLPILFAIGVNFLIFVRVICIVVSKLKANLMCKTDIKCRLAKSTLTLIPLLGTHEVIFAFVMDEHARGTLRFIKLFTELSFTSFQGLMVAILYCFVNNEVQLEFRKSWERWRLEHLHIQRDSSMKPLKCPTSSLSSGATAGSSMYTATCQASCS

[2] = target: T3, gastric inhibitory peptide receptor (GIPR) (Homo sapiens, UniProt P48546); test: cAMP pharmacological functional assay in presence of casein, hGIPR; assay type: cell-based; conditions: HEK293 cells expressing hGIPR, 0.1% Casein, geometric mean; read-out: hGIPR cAMP Rel EC50 nM (SEM, n)
T3 sequence (P48546 22-466): T2 sequence (P48546 22-466)

human GLP-1R [3] = target: T4, human GLP-1R (Homo sapiens, UniProt P43220); test: [125I]-GLP-1 binding (SPA), human GLP-1 receptor; parameters: expressed in transfected cells; crude membranes; conditions: read-out: hGLP1R Ki, (nM) (SEM, n)
T4 sequence (P43220 24-463): as above
How it was run: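 Frozen cell pellets are lysed on ice in hypotonic Tris buffer, pH 7.5, homogenized, and centrifuged to a membrane pellet resuspended at about 1 to 3 mg/mL. Binding is then measured in HEPES-based buffer at pH 7.4, and curves are fitted to give IC50 and Ki.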

human GLP-1R [4] = target: T4, human GLP-1R; test: GLP-1R HEK293 cell membrane [35S]GTPγS binding assay; assay type: biochemical; parameters: expressed in transfected cells; host or cells: HEK293 cells expressing human GLP-1R; membranes; conditions: HEK293 cell membranes expressing human GLP-1R, [35S]GTPγS binding; read-out: hGLP1R GTPgS Rel EC50 nM (SEM, n)
Method: The GLP-1 receptor is a G-protein coupled receptor that increases GTP-bound Gas upon ligand induced receptor activation. The potency of peptides to stimulate-GLP-1R induced activation of Gac is determined using preparations of purified membranes from HEK293 cells expressing the human GLP-1R. […] The test peptides are solubilized in DMSO and diluted in reaction buffer containing 5 μg of membrane in 20 mM HEPES pH 7.4, 50 mM NaCl, 5 mM MgCl2, 40 μg/ml saponin, 0.1% BSA, and […] ^35S-labeled GTPTS for 30 minutes at room temperature. Reactions are terminated by addition of 0.2% Nonidet β-40 detergent containing rabbit anti-Gas polyclonal antibody and 0.5 mg of anti-rabbit polyvinyltoluene beads. Mixtures are developed for 30 minutes, centrifuged at 80×g for 10 minutes, and counted for 1 minute/well using a MicroBeta TriLux instrument. Peptide concentration-response curves are fit to a four-parameter logistic model to calculate potency as an EC50.

human GLP-1R [5] = target: T4, human GLP-1R; test: GLP-1R CHO cell β-arrestin recruitment assay; assay type: cell-based; parameters: host or cells: CHO-K1 PathHunter cells, assay-ready frozen; conditions: for EC50: CHO-K1 cells, PathHunter β-arrestin-2 recruitment, 0.1% casein, read-out: hGLP1R B-Arrestin2 Rel EC50 uM (SEM, n); for hGLP1R B-Arrestin2 % Top: normalized to GLP-1 maximum control
Description: Activated G-protein coupled receptors can interact with the β-arrestin family of signalling proteins. […] CHO-K1 cells expressing Pro-Link-tagged Human GLP-1R and enzyme-acceptor-tagged β-arrestin-2 may be obtained from DiscoveRx and prepared as assay-ready frozen cells. Test peptides are solubilized in DMSO and serial dilutions are perfomed using the Echo acoustic dispenser (LabCyte). Assay media is the PathHunter Cell Assay Buffer (DiscoveRx) containing 0.1% w/v hydrolyzed Casein (Sigma). […] Plates are incubated for 90 minutes in a 37′C/5% C02 incubator and 10 ul of PathHunter detection reagent is added (DiscoveRx) and plates are incubated at room temperature for 60 minutes. Luminescence signal is measured. Peptide concentration-response curves fit to a four-parameter logistic model to calculate potency as an EC50.

Row | SMILES | Ki (human Gcg receptor) [nM] | Ki (human GIP receptor) [nM] | EC50 [1] [nM] | EC50 [2] [nM] | Ki (human GLP-1R [3]) [nM] | EC50 (human GLP-1R [4]) [nM] | EC50 (human GLP-1R [5]) [µM] | hGLP1R B-Arrestin2 % Top (human GLP-1R [5]) [%]
1 | CC[C@H](C)[C@H](NC(=O)[C@H](CC(C)C)NC(=O)[C@H](Cc1ccc(O)cc1)NC(=O)[C@H](CCC(=O)O)NC(=O)[C@@H](NC(=O)[C@H](Cc1ccccc1)NC(=O)[C@H](C)NC(=O)C(C)(C)NC(=O)[C@H](CCC(N)=O)NC(=O)[C@H](C)NC(=O)[C@H](CCCCNC(=O)COCCOCCNC(=O)COCCOCCNC(=O)CC[C@H](NC(=O)CCCCCCCCCCCCCCCCC(=O)O)C(=O)O)NC(=O)[C@H](CCC(=O)O)NC(=O)[C@H](CC(=O)O)NC(=O)[C@H](CC(C)C)NC(=O)[C@](C)(CC(C)C)NC(=O)[C@@H](NC(=O)[C@H](CO)NC(=O)[C@H](Cc1ccc(O)cc1)NC(=O)[C@H](CC(=O)O)NC(=O)[C@H](CO)NC(=O)[C@@H](NC(=O)[C@H](Cc1ccccc1)NC(=O)[C@@H](NC(=O)CNC(=O)[C@H](CCC(=O)O)NC(=O)C(C)(C)NC(=O)[C@@H](N)Cc1ccc(O)cc1)[C@@H](C)O)[C@@H](C)O)[C@@H](C)CC)[C@@H](C)CC)C(=O)N[C@@H](CCC(=O)O)C(=O)NCC(=O)NCC(=O)N1CCC[C@H]1C(=O)N[C@@H](CO)C(=O)N[C@@H](CO)C(=O)NCC(=O)N[C@@H](C)C(=O)N1CCC[C@H]1C(=O)N1CCC[C@H]1C(=O)N1CCC[C@H]1C(=O)N[C@@H](CO)C(N)=O [Example 323] (H-Y[Aib]EGTFTSDYSI[αMeL]LDEK([AEEA-AEEA-γGlu-C18 diacid])AQ[Aib]AFIEYLIEGGPSSGAPPPS-NH2) | 300 | 0.0516 | 0.0597 | 0.0251 | 1.65 | 0.79 |  | 
2 | CC[C@H](C)[C@H](NC(=O)[C@H](CC(C)C)NC(=O)[C@H](Cc1ccc(O)cc1)NC(=O)[C@H](CCC(=O)O)NC(=O)[C@@H](NC(=O)[C@H](Cc1ccccc1)NC(=O)[C@H](CCC(=O)O)NC(=O)C(C)(C)NC(=O)[C@H](CCC(N)=O)NC(=O)[C@H](C)NC(=O)[C@H](CCCCNC(=O)COCCOCCNC(=O)COCCOCCNC(=O)CC[C@H](NC(=O)CCCCCCCCCCCCCCCCCCC(=O)O)C(=O)O)NC(=O)[C@H](CCCCN)NC(=O)[C@H](CC(=O)O)NC(=O)[C@H](CC(C)C)NC(=O)[C@H](CC(C)C)NC(=O)[C@@H](NC(=O)[C@H](CO)NC(=O)[C@H](Cc1ccc(O)cc1)NC(=O)[C@H](CC(=O)O)NC(=O)[C@H](CO)NC(=O)[C@@H](NC(=O)[C@H](Cc1ccccc1)NC(=O)[C@@H](NC(=O)CNC(=O)[C@H](CCC(=O)O)NC(=O)C(C)(C)NC(=O)[C@@H](N)Cc1ccc(O)cc1)[C@@H](C)O)[C@@H](C)O)[C@@H](C)CC)[C@@H](C)CC)C(=O)N[C@@H](C)C(=O)NCC(=O)NCC(=O)N1CCC[C@H]1C(=O)N[C@@H](CO)C(=O)N[C@@H](CO)C(=O)NCC(=O)N[C@@H](C)C(=O)N1CCC[C@H]1C(=O)N1CCC[C@H]1C(=O)N1CCC[C@H]1C(=O)N[C@@H](CO)C(N)=O [Example 319] (H-Y[Aib]EGTFTSDYSILLDKK([AEEA-AEEA-γGlu-C20 diacid])AQ[Aib]EFIEYLIAGGPSSGAPPPS-NH2) | > 984 | 0.0349 | 0.113 | 0.054 | 3.61 | 0.657 |  | 
3 | CC[C@H](C)[C@H](NC(=O)[C@H](CC(C)C)NC(=O)[C@H](Cc1ccc(O)cc1)NC(=O)[C@H](CCC(=O)O)NC(=O)[C@@H](NC(=O)[C@H](Cc1ccccc1)NC(=O)[C@H](CCC(=O)O)NC(=O)C(C)(C)NC(=O)[C@H](CCC(N)=O)NC(=O)[C@H](C)NC(=O)[C@H](CCCCNC(=O)COCCOCCNC(=O)COCCOCCNC(=O)CC[C@H](NC(=O)CCCCCCCCCCCCCCCCCCC(=O)O)C(=O)O)NC(=O)[C@H](CCCCN)NC(=O)[C@H](CC(=O)O)NC(=O)[C@H](CC(C)C)NC(=O)[C@](C)(CC(C)C)NC(=O)[C@@H](NC(=O)[C@H](CO)NC(=O)[C@H](Cc1ccc(O)cc1)NC(=O)[C@H](CC(=O)O)NC(=O)[C@H](CO)NC(=O)[C@@H](NC(=O)[C@H](Cc1ccccc1)NC(=O)[C@@H](NC(=O)CNC(=O)[C@H](CCC(=O)O)NC(=O)C(C)(C)NC(=O)[C@@H](N)Cc1ccccc1)[C@@H](C)O)[C@@H](C)O)[C@@H](C)CC)[C@@H](C)CC)C(=O)N[C@@H](C)C(=O)NCC(=O)NCC(=O)N1CCC[C@H]1C(=O)N[C@@H](CO)C(=O)N[C@@H](CO)C(=O)NCC(=O)N[C@@H](C)C(=O)N1CCC[C@H]1C(=O)N1CCC[C@H]1C(=O)N1CCC[C@H]1C(=O)N[C@@H](CO)C(N)=O [Example 338] (H-F[Aib]EGTFTSDYSI[αMeL]LDKK([AEEA-AEEA-γGlu-C20 diacid])AQ[Aib]EFIEYLIAGGPSSGAPPPS-NH2) | > 1060 | 0.0831 | 0.174 | 0.0472 | 3.23 |  | 0.0189 | 47
4 | CC[C@H](C)[C@H](NC(=O)[C@H](CC(C)C)NC(=O)[C@H](Cc1ccc(O)cc1)NC(=O)[C@H](CCC(=O)O)NC(=O)[C@@H](NC(=O)[C@H](Cc1ccccc1)NC(=O)[C@H](C)NC(=O)C(C)(C)NC(=O)[C@H](CCC(N)=O)NC(=O)[C@H](C)NC(=O)[C@H](CCCCNC(=O)COCCOCCNC(=O)COCCOCCNC(=O)CC[C@H](NC(=O)CCCCCCCCCCCCCCCCCCC(=O)O)C(=O)O)NC(=O)[C@H](CCCN)NC(=O)[C@H](CC(=O)O)NC(=O)[C@H](CC(C)C)NC(=O)[C@](C)(CC(C)C)NC(=O)[C@@H](NC(=O)[C@H](CO)NC(=O)[C@H](Cc1ccc(O)cc1)NC(=O)[C@H](CC(=O)O)NC(=O)[C@H](CO)NC(=O)[C@@H](NC(=O)[C@H](Cc1ccccc1)NC(=O)[C@@H](NC(=O)CNC(=O)[C@H](CCC(=O)O)NC(=O)C(C)(C)NC(=O)[C@H](N)Cc1ccc(O)cc1)[C@@H](C)O)[C@@H](C)O)[C@@H](C)CC)C(C)C)C(=O)N[C@@H](CCC(=O)O)C(=O)NCC(=O)NCC(=O)N1CCC[C@H]1C(=O)N[C@@H](CO)C(=O)N[C@@H](CO)C(=O)NCC(=O)N[C@@H](C)C(=O)N1CCC[C@H]1C(=O)N1CCC[C@H]1C(=O)N1CCC[C@H]1C(=O)N[C@@H](CO)C(N)=O [Example 360] (H-[dY][Aib]EGTFTSDYSI[αMeL]LD[Orn]K([AEEA-AEEA-γGlu-C20 diacid])AQ[Aib]AFVEYLIEGGPSSGAPPPS-NH2) | 485 | 0.128 | 0.145 | 0.197 | 1.74 |  | 0.0395 | 25.8
